Experimental data published in patent US9487479B2, “Small molecule inhibitors of N-terminus activation of the androgen receptor” (The University of British Columbia, priority 2008, dated 2016).

Tests used:
LNCaP cells = assay: Androgen-dependent proliferation of LNCaP cells (BrdU incorporation); type: cell-based, human; conditions: 5 μg/ml, 1 hr before R1881 0.1 nM, 3 days
Description: BrdU incorporation was measured 3 days later to indicate changes in proliferation in response to androgen (see FIG. 3B).

LNCaP xenografts = assay: LNCaP subcutaneous xenograft model in castrated NOD-SCID mice; type: in vivo; conditions: intratumoral 30 mg/kg every 3 days
Description: CB3.1 reduced the size of the tumors while DMSO-treated tumors continued to grow. Animals were castrated 7 days before 1st injection and tumor volume was set to 100%. Injections were made every 3 days at a dose of 30 mg/kg body weight every 3 days. B. Photograph is of a representative harvested LNCaP xenograft treated with CB3.1. The black bar represents 10 mm.
Six to eight-week old male athymic SCID mice were inoculated subcutaneously in the flank region via a 27-gauge needle with a 150 μl suspension of LNCaP or PC3 human prostate cancer cells (1×10^6 cells). The inoculations took place while the animal was under isofluorane anaesthesia. The tumor take rate is approximately 75%. Mice bearing tumors of 100 mm^3 were randomly assigned to treatment groups. Castration was performed as described below. Tumor volume (formula: L×W×H×0.5236) was measured in mice bearing LNCaP subcutaneous tumors that became palpable or visible and at least 40 mm^3. The animals were monitored daily and tumors were measured every 5 days.
Androgen withdrawal was completed by castration. Under isoflurane anaesthesia, a 5 mm vertical incision was used to gently withdraw the epididymal fat pad, to which the testis were attached, and to remove the testis from body. The cord connecting the testis to the blood supply was ligated with a suture, then cut. The cord was then returned to the abdominal cavity. Surgical suture was used to close the incision. To relieve pain, buprenorphine (0.05 mg/kg) was injected prior to surgery.
The subcutaneous xenograft model was used to test whether sintokamides that inhibit activation of the androgen receptor in vitro have any effect on these tumors. CB3.1 was tested in vivo using the LNCaP subcutaneous xenograft model. […] LNCaP human prostate cancer cells express endogenous androgen receptor (AR) and prostate-specific antigen (PSA), and progress to androgen independence in castrated hosts. LNCaP cells (10^6/ml) were implanted subcutaneously into NOD-SCID male mice that were at least 8 weeks in age. […]

CCC(=O)N[C@H](C[C@H](C)C(Cl)(Cl)Cl)C(=O)N1C(=O)C=C(OC)[C@@H]1C[C@H](C)C(Cl)Cl [CB3.1, Sintokamide A]
androgen-induced proliferation (BrdU incorporation) (LNCaP cells): reduced proliferation
tumor volume relative to the tumor volume on the day of the 1st injection (LNCaP xenografts; 15 days after first injection, castrated mice): 111.81%±38.12
serum PSA (LNCaP xenografts; day 15 after the 1st injection): 98.47%±170.51
effect on tumor volume (LNCaP xenografts; castrated mice): showed a reduction of tumor volume
